Measured values published in patent US20030039689A1, “Polymer-based, sustained release drug delivery system” (priority 2001, published 2003).

Experiments:
[1] = Release from TC-32 coated stents, non-implanted and explanted from swine, into phosphate buffer; assay type: physicochemical, common swine; conditions: stents harvested on study day 5 from swine LAD and non-implanted stents; 0.1 M phosphate buffer
Method: Polyurethane (1.008 gm) was added to 50.0 gm of tetrahydrofuran (THF). The mixture was stirred overnight to dissolve the polymer. 5.0 gm of the polymer solution was diluted with 10.0 gm of THF. 150.2 mg of a co-drug of 5-fluorouracil (5FU) and triamcinolone acetonide (TA) (the co-drug being defined as “TC-32”) was added to the polymer solution and dissolved. The coating solution was prepared with 60% codrug loading. A 13% codrug loaded coating solution was also prepared. Bare stents (Tetra, Guidant, Lot# 1092154, 13 mm Tetra) were washed with isopropanol, air-dried, and spray coated with the coating solution using a precision airbrush. The coating was repeated until approximately 1.0 mg of total coating had been applied to each stent. The coated stents were vacuum dried for two hours at 50° C. to remove solvent residue, then subjected to plasma treatment and gamma-irradiation.
Co-drug coated stents were test in two groups. […] Samples were taken periodically and the concentration of co-drug in the buffer was tested by HPLC. The entire release media was replaced after each sample.
Group Two stents were placed in vivo. Three common swine had TC-32 coated stents implanted into the left anterior descending (LAD) coronary artery on study day 1. […] The amount of each drug released into the media was determined by HPLC.

[2] = Release test from Chronoflex polymer/TC-32 coated HPLC inserts into phosphate buffer; assay type: physicochemical
Method: A mixture of 3.3 gm Chronoflex C(65D) (Lot# CTB-G25B-1234) dispersion containing 0.3 gm of Chronoflex C(65D) and 2.2 gm Chronoflex C(55D) (Lot# CTB-121B-1265) dispersion containing 0.2 gm of Chronoflex C (55D), both in dimethyl acetamide (DMAC) (1:10, w/w) was prepared by mixing the two dispersions together. To this mixture, 6.0 gm of tetrahydrofurane (HPLC grade) were added and mixed. The final mixture was not a clear solution. Then 101.5 mg of a co-drug of 5-fluorouracil (5FU) and triamcinolone acetonide (TA) (the co-drug being defmed as “TC-32”) was added and dissolved into the polymer solution.
Ten (10) HPLC inserts were then coated with the polymer/TC-32 solution by dipping, which was then followed by air-drying under ambient temperature. The coating and air-drying process was repeated four (4) times (5 times total) until a total of about 10 mg of polymer/TC-32 was applied to each insert. The inserts were then placed in an oven at 80° C. for two hour to remove the residue of the solvent.

[3] = Effect of gamma irradiation and plasma treatment on drug release from coated stents; assay type: physicochemical; conditions: stents with or without plasma treatment and gamma-irradiation; 0.1 M phosphate buffer pH 7.4
Method: FIGS. 11A and 11B are graphs showing the effect of gamma irradiation and plasma treatment on drug release. […] Samples were taken periodically and the entire release media was replaced after each sample. The amount of each drug released into the media was determined by HPLC.

[4] = Release test from Chronoflex polymer/TC-32 dip-coated stents into phosphate buffer; assay type: physicochemical; conditions: phosphate buffer pH 7.4, 37° C., HPLC
Method: To 5.0 gm of stirred dimethyl acetamide (DMAC), 300 mg of Chronoflex C(65D) (Lot# CTB-G25B-1234) and 200 mg of Chronoflex C(55D) (Lot# CTB-121B-1265) were added. The polymer was slowly dissolved in DMAC (about 4 hours). Then 5.0 gm of THF was added to the polymer dispersion. The mixture was not a clear solution. Then 100.9 mg of TC-32 was added and dissolved in the mixture.
Three (3) Stents, supplied by Guidant Corp, were coated then with the polymer/TC-32 solution by dipping and followed by air-drying under ambient temperature. The coating and air-drying process was repeated a few times till a total of about 2.0 mg of polymer/TC-32 were applied to each stent. The coated stents were air-dried under ambient temperature in a biological safety cabinet over night. The stents were then vacuum dried at 80° C. for two hour to remove the residue of the solvent. […] Samples were taken daily, and the entire media was replaced with a fresh one at each sampling time.

[5] = Release test from PVA coated glass plates into phosphate buffer, HPLC; assay type: physicochemical; conditions: 0.1 M phosphate buffer pH 7.4, 37° C., intact compound plus constituents
[6] = Release test from silicone coated glass plates into phosphate buffer, HPLC

| release rate (slope of total cumulative release curve) [5] | release rate (slope of total cumulative release curve) ([6]; silicone coated glass plates, 0.1 M phosphate buffer pH 7.4, 37° C., intact compound plus constituents) | naproxen detected in release media ([6]; silicone coated glass plates, up to day 6, phosphate buffer pH 7.4, 37° C.) | TC-112 detected in buffer ([6]; silicone coating, up to day 6) | TC-112 hydrolyzed (calculated from naproxen detected) ([6]; silicone coating, up to day 6) | total TC-112 released (detected plus hydrolyzed) ([6]; silicone coating, up to day 6) | Structure (SMILES) | intact codrug in release media [1] | half-life in buffer ([2]; 0.1 m phosphate buffer, pH 7.4, 37° C.) | intact codrug in the release media ([2]; coated HPLC inserts, phosphate buffer pH 7.4, 37° C., HPLC) | intact codrug in release media [3] | intact codrug in the release media [4] |
| --- | --- | --- | --- | --- | --- | --- | --- | --- | --- | --- | --- |
| – | – | – | – | – | – | CC1(C)O[C@@H]2CC3C4CCC5=CC(=O)C=CC5(C)[C@@]4(F)[C@@H](O)CC3(C)[C@]2(C(=O)COC(=O)OCn2cc(F)c(=O)[nH]c2=O)O1 (some centres unmarked) [TC-32] | not detectable | short | no TC-32 was detectable | not detectable | No TC-32 was detectable |
| 10 µg/day | 13.3 µg/day | 43.9 mg | 51.4 mg | 71.0 mg | 122.4 mg | COc1ccc2cc(C(C)C(=O)OCn3cc(F)c(=O)[nH]c3=O)ccc2c1 (centres unmarked) [TC-112] | – | – | – | – | – |
